Test results from patent publication US10828269B2, “Reducing muscle atrophy by administering astaxanthin” (FUJI CHEMICAL INDUSTRIES CO., LTD., priority 2004, dated 2020).

Experiments:
diabetic db/db mice = settings: Naito Y. et al, Redox Rep 2002; cited from earlier work
[1] = Takahashi Jiro et al, Rinsho Iyaku 2004; cited from earlier work
[2] = tested on: gastrocnemius of Wistar male rats; assay: Muscle atrophy test (sciatic nerve of left leg cut); assay type: in vivo, rat
Method: 9-week-old Wistar male rats were bred each being fed a normal diet for breeding and water ad libitum under the conditions with a 12 hours light-dark cycle at a temperature of 21° C. to 25° C. and were accustomed to the environment in advance. The rats were divided into two groups of 10 rats per group, and each group was bred with a normal diet (control group) or a diet to which astaxanthin was added (Ax group) fed ad libitum. The diet to which astaxanthin was added was prepared by mixing free astaxanthin at 0.02%. At one week after the start of ingestion of astaxanthin-added diet, the sciatic nerve of the left leg was cut and muscle of the left lower extremity was inactivated. After breeding for further two weeks, rats were killed, triceps surae (soleus muscle, gastrocnemius, and plantaris) were extracted from left leg (limb in which nerves were removed) and right leg (control limb), respectively, and the wet weight of the gastrocnemius was measured. The atrophy rate was calculated using the difference of the wet weight of the gastrocnemius of left lower limb to the wet weight of the gastrocnemius of right lower limb with respect to each group Table 7. […]

[3] = tested on: Type II diabetic female db/db mice; assay: Onset of diabetic complication in db/db mice (urine albumin, urine 8-OHdG, blood glucose, kidney histopathology); assay type: in vivo, mouse
Method: Type II diabetic female db/db mice and non-diabetic db/m were purchased from Clea Japan, Inc. Mice were bred under the conditions with a 12 hours light-dark cycle at a temperature of 21° C. to 25° C. For acclimation, mice were fed CE-2 (Clea Japan, Inc.) with free access to water for one week. The mice were divided into three groups each consisting of 8 mice (non-diabetic db/m, diabetic db/db, and astaxanthin-administered db/db) and each group was bred with feed ad libitum. Mice in astaxanthin-administered group were fed a diet in which 0.02% astaxanthin in terms of free astaxanthin was compounded with CE-2. Each group was bred for 12 weeks, and body weight, blood glucose levels, 8-OHdG levels in urine, albumin levels in urine, and kidney histopathology, were measured. Astaxanthin used here was AstaReal (registered trademark, Fuji Chemical Industry Co., Ltd.) 50F, which is oil composed of astaxanthin fatty acid ester and triglycerides and contains 5% astaxanthin in terms of free astaxanthin.
FIG. 1 is a photomicrograph of glomerulus.

CC1=C(/C=C/C(C)=C/C=C/C(C)=C/C=C/C=C(C)/C=C/C=C(C)/C=C/C2=C(C)C(=O)C(O)CC2(C)C)C(C)(C)CC(O)C1=O (stereo not drawn) [astaxanthin, 3,3′-dihydroxy-β,β-carotene-4,4′-dione]
blood glucose level (diabetic db/db mice): reduces blood glucose level | diabetic nephropathy (diabetic db/db mice): has an effect on the improvement of diabetic nephropathy | mutagenicity [1]: has not been observed having any mutagenicity | Gastrocnemius Atrophy rate ([2]; difference of wet weight of left to right gastrocnemius, Ax group): 37.7% | atrophy rate compared with the control group ([2]; risk rate 5% or less): smaller value of atrophy rate | Albumin level in urine ([3]; at the end (12 weeks), db/db mice, diet with 0.02% astaxanthin (AstaReal 50F)): 77.8 ± 44.6 mg/dL | Albumin level in urine ([3]; at the start, astaxanthin-administered db/db mice): 46.2 ± 1.5 mg/dL | blood glucose levels ([3]; diabetic db/db mice, diet with 0.02% astaxanthin, 12 weeks): reduces blood glucose levels | enlargement of glomerular mesangium (microscope) ([3]; kidney of db/db(Ax) vs db/db mice): apparently moderated
